EPA's ToxRefDB 2

Columns and labels:
mouse [1] = conditions: Prenatal developmental toxicity study, cd1, Oral, Gavage/Intubation, dose end: 16 GD
rat [2] = conditions: Peri- and post-natal toxicity study (Segment III), wistar, Oral, [Not Specified], dose end: 21 PND
rat [3] = conditions: Combined chronic toxicity/carcinogenicity, other, Oral, Feed, dose end: 104 week, group: systemic
mouse [4] = conditions: Combined chronic toxicity/carcinogenicity; other; Oral; Feed; dose end: 101 week; group: systemic; systemic / pathology microscopic / liver / enlarged vacuoles + systemic / pathology microscopic / liver / focal cellular change + systemic…
mouse [5] = conditions: Prenatal developmental toxicity study, cd1, Oral, Gavage/Intubation, dose end: 16 GD, group: maternal
dog = conditions: Chronic toxicity, beagle, Oral, Capsule, dose end: 52 week, group: systemic
rat [6] = conditions: Subchronic oral toxicity in rodents, wistar, Feed, dose end: 3 month, group: systemic
mouse [7] = conditions: Subchronic oral toxicity in rodents, Feed, dose end: 90 day, group: systemic, systemic / pathology microscopic / liver / clear cell focus + systemic / pathology microscopic / liver / [other] + systemic / clinical …
rat [8] = conditions: Multigenerational reproductive toxicity study, wistar, Oral, Feed, dose end: 2 generation
rat [9] = conditions: Subchronic oral toxicity in rodents, wistar, Feed, dose end: 6 month, group: systemic
[10] = group: developmental, developmental / developmental malformation / bone / supernumerary
[11] = group: developmental, developmental / developmental malformation / bone / supernumerary + developmental / developmental malformation / bone / [other] + …
[12] = group: maternal, reproductive / reproductive performance / estrous cycle / corpora lutea
[13] = group: developmental, developmental / offspring survival late / viability index / viability index
[14] = group: maternal, reproductive / offspring survival early / dead fetuses / dead fetuses + reproductive / offspring survival early / litter size / litter size
[15] = group: parental, systemic / in life observation / food consumption / food consumption + systemic / in life observation / mortality / mortality
[16] = systemic / pathology microscopic / thyroid gland / neoplasm nos + systemic / in life observation / body weight / body weight + systemic / in…
[17] = systemic / in life observation / body weight / body weight gain + systemic / in life observation / body weight / dam weight + systemic / in …
[18] = systemic / clinical chemistry / alkaline phosphatase (alp/alk) / alkaline phosphatase (alp/alk) + systemic / in life observation / body …
[19] = systemic / organ weight / adrenal gland / absolute + systemic / organ weight / adrenal gland / relative to body weight + systemic / …
[20] = group: offspring, developmental / offspring survival late / viability index / viability index + developmental / offspring survival late / lactation index / …
[21] = group: offspring, developmental / offspring survival late / viability index / viability index + reproductive / offspring survival early / dead fetuses / dead …
[22] = group: parental, systemic / in life observation / body weight / body weight gain
[23] = group: parental, systemic / in life observation / body weight / body weight gain + systemic / in life observation / body weight / body weight + systemic / …
[24] = group: reproductive, reproductive / reproductive performance / gestational length / gestational length + reproductive / reproductive performance / dystocia / …
[25] = systemic / clinical chemistry / glucose / glucose
[26] = systemic / clinical chemistry / glucose / glucose + systemic / clinical chemistry / lactic acid dehydrogenase (ldh) / lactic acid …

## C=CCOC(Cn1ccnc1)c1ccc(Cl)cc1Cl (centres undefined) [Imazalil]
Mouse [1]; [10]
  LEL: 80 mg/kg/day
  LOAEL: 80 mg/kg/day
Mouse [1]; [11]
  NEL: 40 mg/kg/day
  NOAEL: 40 mg/kg/day
Mouse [1]; [12]
  LEL: 10 mg/kg/day
  NEL: < 10 mg/kg/day
Mouse [1]; group: maternal, systemic / in life observation / body weight / body weight gain + systemic / in life observation / food consumption / food consumption
  LOAEL: 40 mg/kg/day
Mouse [1]; group: maternal, systemic / in life observation / body weight / body weight gain + systemic / in life observation / food consumption / food consumption + …
  NOAEL: 10 mg/kg/day
Rat [2]; [13]
  LEL: 80 mg/kg/day
  LOAEL: > 80 mg/kg/day
  NEL: 20 mg/kg/day
  NOAEL: ≥ 80 mg/kg/day
Rat [2]; [14]
  LEL: 80 mg/kg/day
  LOAEL: > 80 mg/kg/day
  NEL: 20 mg/kg/day
  NOAEL: ≥ 80 mg/kg/day
Rat [2]; [15]
  LEL: 80 mg/kg/day
  LOAEL: > 80 mg/kg/day
  NEL: 20 mg/kg/day
  NOAEL: ≥ 80 mg/kg/day
Rat [3]; systemic / pathology microscopic / liver / pigmentation
  LEL: 14.6 mg/kg/day
Rat [3]; systemic / pathology microscopic / liver / pigmentation + systemic / clinical chemistry / alanine aminotransferase (alt/sgpt) / alanine …
  NEL: 3.6 mg/kg/day
Rat [3]; [16]
  LOAEL: 65.8 mg/kg/day
  NOAEL: 10.8 mg/kg/day
Mouse [4]
  LEL: 28 mg/kg/day
  LOAEL: 28 mg/kg/day
  NEL: 6.67 mg/kg/day
  NOAEL: 6.67 mg/kg/day
Mouse [5]; systemic / in life observation / body weight / body weight gain
  LOAEL: 80 mg/kg/day
Mouse [5]; [17]
  LEL: 80 mg/kg/day
  NEL: 40 mg/kg/day
  NOAEL: 40 mg/kg/day
dog; [18]
  LOAEL: 20 mg/kg/day
  NEL: 1.25 mg/kg/day
  NOAEL: 2.5 mg/kg/day
dog; systemic / organ weight / liver / absolute + systemic / organ weight / liver / relative to body weight
  LEL: 2.5 mg/kg/day
Rat [6]; [19]
  LOAEL: 37.9 mg/kg/day
  NOAEL: 18.7 mg/kg/day
Rat [6]; systemic / organ weight / liver / absolute + systemic / organ weight / adrenal gland / absolute + systemic / organ weight / adrenal gland / …
  NEL: 90.1 mg/kg/day
Mouse [7]
  LEL: 38.6 mg/kg/day
  LOAEL: 38.6 mg/kg/day
  NEL: 9.5 mg/kg/day
  NOAEL: 9.5 mg/kg/day
Rat [8]; [20]
  LEL: 5 mg/kg/day
  NEL: < 5 mg/kg/day
Rat [8]; [21]
  LOAEL: 80 mg/kg/day
  NOAEL: 20 mg/kg/day
Rat [8]; [22]
  NEL: 20 mg/kg/day
  NOAEL: 20 mg/kg/day
Rat [8]; [23]
  LEL: 80 mg/kg/day
  LOAEL: 80 mg/kg/day
Rat [8]; group: reproductive, reproductive / reproductive performance / gestational length / gestational length
  LOAEL: 80 mg/kg/day
Rat [8]; [24]
  LEL: 80 mg/kg/day
  NEL: 20 mg/kg/day
  NOAEL: 20 mg/kg/day
Rat [9]; [25]
  LEL: 1.25 mg/kg/day
  NEL: < 1.25 mg/kg/day
Rat [9]; [26]
  LOAEL: 20 mg/kg/day
  NOAEL: 5 mg/kg/day
